# Reference: ChEMBL document CHEMBL4665820, “Discovery of VU6027459: A First-in-Class Selective and CNS Penetrant mGlu Positive Allosteric Modulator Tool Compound” (ACS Med Chem Lett, 2020)
# How the values were obtained:
# Rattus norvegicus [1] = species: Rattus norvegicus; test: Displacement of [3H]-Diltiazem from L-type calcium channel benzothiazepine binding site in rat brain at 10 uM incubated for 180 mins by scintillation counting analysis relative to control; type: tissue-based
# [2] = biological target: Metabotropic glutamate receptor 7 (Rattus norvegicus, UniProt P35400); test: (§1) Positive allosteric modulation of rat mGlu7 receptor expressed in HEK293 cells co-expressing Gai5 assessed as potentiation of L-AP4-induced calcium mobilization preincubated for 140 secs and treated with EC20 L-AP4 for 125 secs and followed by subsequent addition of EC80 L-AP4 by Fluo-4-AM dye based fluorescence assay; type: functional, cell-based; conditions: read-out: EC50
# [3] = biological target: Metabotropic glutamate receptor 7 (Rattus norvegicus) (UniProt P35400); test: as §1, with “assay relative to maximal induction of L-AP4” for “assay”; type: functional, cell-based; conditions: filed as positive allosteric modulator, time 140.0 sec
# Metabotropic glutamate receptor 7 (Rattus norvegicus), sequence (P35400 whole entry): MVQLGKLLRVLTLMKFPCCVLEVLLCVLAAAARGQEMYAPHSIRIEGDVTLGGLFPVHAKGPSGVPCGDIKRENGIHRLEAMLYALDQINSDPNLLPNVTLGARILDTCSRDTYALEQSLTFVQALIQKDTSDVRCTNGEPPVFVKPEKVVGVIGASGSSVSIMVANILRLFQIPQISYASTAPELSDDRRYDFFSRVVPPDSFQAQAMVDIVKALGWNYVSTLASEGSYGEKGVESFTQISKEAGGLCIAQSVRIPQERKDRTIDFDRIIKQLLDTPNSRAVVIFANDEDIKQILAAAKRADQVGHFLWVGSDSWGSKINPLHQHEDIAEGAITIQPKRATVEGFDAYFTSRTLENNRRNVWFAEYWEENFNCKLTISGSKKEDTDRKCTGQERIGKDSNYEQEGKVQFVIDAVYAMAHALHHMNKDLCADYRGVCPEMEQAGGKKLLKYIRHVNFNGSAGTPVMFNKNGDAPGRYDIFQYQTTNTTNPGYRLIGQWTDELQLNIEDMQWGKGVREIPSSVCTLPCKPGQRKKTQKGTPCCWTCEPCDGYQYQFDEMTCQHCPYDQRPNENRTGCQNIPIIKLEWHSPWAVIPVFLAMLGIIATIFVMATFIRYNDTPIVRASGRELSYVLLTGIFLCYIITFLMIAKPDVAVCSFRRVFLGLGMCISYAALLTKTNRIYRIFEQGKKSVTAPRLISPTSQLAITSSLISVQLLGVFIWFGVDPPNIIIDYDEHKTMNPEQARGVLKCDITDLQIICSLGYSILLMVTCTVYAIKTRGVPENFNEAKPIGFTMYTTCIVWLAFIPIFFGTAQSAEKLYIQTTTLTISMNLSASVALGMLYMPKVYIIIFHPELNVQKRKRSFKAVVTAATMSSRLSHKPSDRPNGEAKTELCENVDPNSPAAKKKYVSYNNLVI
# [4] = biological target: Metabotropic glutamate receptor 7 (Rattus norvegicus) (UniProt P35400); test: Positive allosteric modulation of rat mGlu7 expressed in HEK293 cells co- expressing GIRK assessed as potentiation of L-AP4-induced thallium flux incubated for 140 sec by FluoZin2-AM dye based fluorescence analysis relative to maximal induction of L-AP4; type: cell-based; conditions: filed as positive allosteric modulator
# [5] = biological target: Alpha-1B adrenergic receptor (Homo sapiens) (UniProt P35368); test: Displacement of [3H]-Prazosin from human recombinant adrenergic alpha 1B receptor at 10 uM incubated for 60 mins by scintillation counting analysis relative to control
# Alpha-1B adrenergic receptor (Homo sapiens), sequence (P35368 whole entry): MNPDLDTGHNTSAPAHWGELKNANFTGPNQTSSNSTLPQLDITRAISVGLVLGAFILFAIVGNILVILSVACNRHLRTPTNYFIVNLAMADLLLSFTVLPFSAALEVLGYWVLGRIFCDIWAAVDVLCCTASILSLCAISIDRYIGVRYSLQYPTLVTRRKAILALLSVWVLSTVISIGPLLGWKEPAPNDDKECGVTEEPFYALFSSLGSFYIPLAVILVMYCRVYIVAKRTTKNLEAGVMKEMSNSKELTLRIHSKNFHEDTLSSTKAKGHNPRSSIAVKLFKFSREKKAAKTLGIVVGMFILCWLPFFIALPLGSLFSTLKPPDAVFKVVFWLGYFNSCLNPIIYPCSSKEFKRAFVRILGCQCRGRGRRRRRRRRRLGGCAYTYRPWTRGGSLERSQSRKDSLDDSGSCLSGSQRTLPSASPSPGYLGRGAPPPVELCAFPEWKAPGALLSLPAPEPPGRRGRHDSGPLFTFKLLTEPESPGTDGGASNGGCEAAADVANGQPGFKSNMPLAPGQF
# [6] = biological target: Beta-2 adrenergic receptor (Homo sapiens) (UniProt P07550); test: Displacement of [3H]-(-)CGP 12177 from human recombinant adrenergic beta 2 receptor at 10 uM incubated for 120 mins by scintillation counting analysis relative to control
# Beta-2 adrenergic receptor (Homo sapiens), sequence (P07550 whole entry, looked up): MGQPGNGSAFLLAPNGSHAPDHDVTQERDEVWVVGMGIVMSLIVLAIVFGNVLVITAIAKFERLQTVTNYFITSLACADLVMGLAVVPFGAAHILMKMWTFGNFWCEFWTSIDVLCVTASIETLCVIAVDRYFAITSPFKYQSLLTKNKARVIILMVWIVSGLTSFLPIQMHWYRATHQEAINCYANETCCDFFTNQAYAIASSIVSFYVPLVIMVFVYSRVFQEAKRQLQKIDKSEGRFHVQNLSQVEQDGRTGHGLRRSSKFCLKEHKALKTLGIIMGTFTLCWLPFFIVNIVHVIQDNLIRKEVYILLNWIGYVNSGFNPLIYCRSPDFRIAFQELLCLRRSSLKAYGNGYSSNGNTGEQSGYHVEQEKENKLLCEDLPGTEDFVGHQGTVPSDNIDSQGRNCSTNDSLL
# [7] = biological target: B1 bradykinin receptor (Homo sapiens) (UniProt P46663); test: Displacement of [3H]desArg10-KD from human recombinant Bradykinin B1 receptor at 10 uM incubated for 120 mins by scintillation counting analysis relative to control
# B1 bradykinin receptor (Homo sapiens), sequence (P46663 whole entry): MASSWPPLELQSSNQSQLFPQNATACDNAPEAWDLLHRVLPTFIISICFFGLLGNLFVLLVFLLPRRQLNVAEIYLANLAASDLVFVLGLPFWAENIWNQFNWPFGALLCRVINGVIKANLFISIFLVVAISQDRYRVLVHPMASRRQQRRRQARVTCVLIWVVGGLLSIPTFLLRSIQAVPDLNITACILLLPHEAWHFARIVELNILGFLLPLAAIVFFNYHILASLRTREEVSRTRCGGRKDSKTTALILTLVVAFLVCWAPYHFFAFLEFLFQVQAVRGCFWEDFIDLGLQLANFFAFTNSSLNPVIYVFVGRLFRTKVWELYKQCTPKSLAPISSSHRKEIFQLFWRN
# [8] = biological target: B2 bradykinin receptor (Homo sapiens) (UniProt P30411); test: Displacement of [3H]bradykinin from human recombinant B2 receptor at 10 uM after 60 mins by scintillation counting analysis relative to control
# [9] = biological target: D(2) dopamine receptor (Homo sapiens) (UniProt P14416); test: Displacement of [3H]7-OH-DPAT from human recombinant dopamine D2S receptor at 10 uM after 60 mins by scintillation counting analysis relative to control
# D(2) dopamine receptor (Homo sapiens), sequence (P14416 whole entry): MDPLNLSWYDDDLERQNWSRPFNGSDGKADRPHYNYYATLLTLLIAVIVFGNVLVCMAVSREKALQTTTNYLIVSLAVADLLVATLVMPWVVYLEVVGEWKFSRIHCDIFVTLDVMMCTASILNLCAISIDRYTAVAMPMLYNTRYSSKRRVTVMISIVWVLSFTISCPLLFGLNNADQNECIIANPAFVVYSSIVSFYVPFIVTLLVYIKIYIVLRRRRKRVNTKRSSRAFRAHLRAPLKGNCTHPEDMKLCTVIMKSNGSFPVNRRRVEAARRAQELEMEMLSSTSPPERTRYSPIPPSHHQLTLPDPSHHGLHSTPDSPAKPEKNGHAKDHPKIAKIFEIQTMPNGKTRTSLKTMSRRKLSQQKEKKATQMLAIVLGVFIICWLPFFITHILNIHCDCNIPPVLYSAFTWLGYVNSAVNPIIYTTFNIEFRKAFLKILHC
# [10] = biological target: D(3) dopamine receptor (Homo sapiens) (UniProt P35462); test: Displacement of [3H]-methyl-spiperone from human recombinant Dopamine D3 receptor at 10 uM incubated for 60 mins by scintillation counting analysis relative to control
# D(3) dopamine receptor (Homo sapiens), sequence (P35462 whole entry): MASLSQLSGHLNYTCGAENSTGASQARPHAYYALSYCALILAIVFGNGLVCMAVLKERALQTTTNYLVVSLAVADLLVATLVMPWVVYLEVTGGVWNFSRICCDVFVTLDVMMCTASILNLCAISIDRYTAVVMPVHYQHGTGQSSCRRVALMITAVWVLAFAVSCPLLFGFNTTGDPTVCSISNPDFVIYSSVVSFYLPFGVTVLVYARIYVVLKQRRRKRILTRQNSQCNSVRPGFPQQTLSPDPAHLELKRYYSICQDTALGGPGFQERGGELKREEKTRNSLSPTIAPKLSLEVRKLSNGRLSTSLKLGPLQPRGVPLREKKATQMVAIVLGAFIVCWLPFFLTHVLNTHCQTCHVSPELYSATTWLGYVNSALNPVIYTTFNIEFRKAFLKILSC
# [11] = biological target: Endothelin receptor type B (Homo sapiens) (UniProt P24530); test: Displacement of [125I]-endothelin1 from human recombinant Endothelin ETB receptor cells at 10 uM incubated for 120 mins by scintillation counting analysis relative to control; type: cell-based
# Endothelin receptor type B (Homo sapiens), sequence (P24530 whole entry): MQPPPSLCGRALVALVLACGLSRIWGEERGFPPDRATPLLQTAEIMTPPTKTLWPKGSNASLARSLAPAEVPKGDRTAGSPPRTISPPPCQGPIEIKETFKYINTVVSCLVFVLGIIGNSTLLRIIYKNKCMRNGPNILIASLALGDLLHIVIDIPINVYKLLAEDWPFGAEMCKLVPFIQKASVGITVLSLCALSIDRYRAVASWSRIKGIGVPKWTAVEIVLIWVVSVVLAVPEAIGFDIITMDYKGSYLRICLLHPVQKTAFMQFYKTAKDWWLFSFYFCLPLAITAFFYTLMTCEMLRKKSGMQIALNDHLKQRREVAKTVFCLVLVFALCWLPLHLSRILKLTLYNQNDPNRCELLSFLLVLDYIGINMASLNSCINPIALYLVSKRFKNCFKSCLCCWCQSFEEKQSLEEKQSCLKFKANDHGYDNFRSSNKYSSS
# [12] = biological target: Epidermal growth factor receptor (Homo sapiens) (UniProt P00533); test: Displacement of [125I]-EGF from human EGF receptor at 10 uM incubated for 60 mins by scintillation counting analysis relative to control
# [13] = biological target: Estrogen receptor (Homo sapiens) (UniProt P03372); test: Displacement of [3H]-estradiol from human recombinant Estrogen ERalpha receptor at 10 uM incubated for 120 mins by scintillation counting analysis relative to control
# Rattus norvegicus [14] = species: Rattus norvegicus; test: Displacement of [3H]-Flunitrazepam from GABAA channel flunitrazepam binding site in rat brain at 10 uM incubated for 60 mins by scintillation counting analysis relative to control; type: tissue-based
# Rattus norvegicus [15] = species: Rattus norvegicus; test: Displacement of [3H]-MDL105519 from NMDA glutamate receptor glycine binding site in rat at 10 uM incubated for 30 mins by scintillation counting analysis relative to control
# [16] = biological target: Histamine H2 receptor (Homo sapiens) (UniProt P25021); test: Displacement of [125I]APT from human recombinant histamine H2 receptor at 10 uM after 120 mins by scintillation counting analysis relative to control
# [17] = biological target: Interleukin-1 receptor type 1 (Homo sapiens) (UniProt P14778); test: Displacement of [125I]-Interleukin 1beta from human interleukin IL-1 R1 receptor at 10 uM incubated for 120 mins by scintillation counting analysis relative to control
# Interleukin-1 receptor type 1 (Homo sapiens), sequence (P14778 whole entry): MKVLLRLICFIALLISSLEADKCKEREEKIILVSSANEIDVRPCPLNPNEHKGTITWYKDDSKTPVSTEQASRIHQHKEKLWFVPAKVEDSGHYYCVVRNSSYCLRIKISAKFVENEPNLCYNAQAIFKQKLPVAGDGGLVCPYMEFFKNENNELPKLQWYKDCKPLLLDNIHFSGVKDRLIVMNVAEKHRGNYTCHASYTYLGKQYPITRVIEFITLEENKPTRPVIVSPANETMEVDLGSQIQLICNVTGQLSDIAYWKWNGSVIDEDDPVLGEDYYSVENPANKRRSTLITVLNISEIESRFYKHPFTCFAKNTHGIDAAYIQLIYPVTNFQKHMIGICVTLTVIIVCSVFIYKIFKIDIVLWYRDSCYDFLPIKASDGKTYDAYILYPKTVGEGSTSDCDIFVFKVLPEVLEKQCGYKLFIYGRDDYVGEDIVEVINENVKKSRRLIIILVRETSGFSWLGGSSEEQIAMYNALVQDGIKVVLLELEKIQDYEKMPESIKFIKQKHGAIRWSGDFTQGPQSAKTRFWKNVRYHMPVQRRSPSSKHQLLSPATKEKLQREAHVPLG
# [18] = biological target: Melatonin receptor type 1A (Homo sapiens) (UniProt P48039); test: Displacement of [125I][…] from human recombinant MT1 receptor at 10 uM after 240 mins by scintillation counting analysis relative to control
# [19] = biological target: Muscarinic acetylcholine receptor M1 (Homo sapiens) (UniProt P11229); test: Displacement of [125I]pirenzepine from human recombinant M1 receptor at 10 uM after 60 mins by scintillation counting analysis relative to control
# [20] = biological target: Muscarinic acetylcholine receptor M2 (Homo sapiens) (UniProt P08172); test: Displacement of [3H]AF-DX 384 from human recombinant M2 receptor at 10 uM after 60 mins by scintillation counting analysis relative to control
# [21] = biological target: Neuropeptide Y receptor type 1 (Homo sapiens) (UniProt P25929); test: Displacement of [125I]peptide YY from human Y1 receptor at 10 uM after 120 mins by scintillation counting analysis relative to control
# [22] = biological target: Neuropeptide Y receptor type 2 (Homo sapiens) (UniProt P49146); test: Displacement of [125I]peptide YY from human Y2 receptor at 10 uM after 120 mins by scintillation counting analysis relative to control
# [23] = biological target: Acetylcholine receptor subunit alpha (Homo sapiens) (UniProt P02708); test: Displacement of [125I] alpha-Bungarotoxin from human nicotinic acetylcholine alpha 1 receptor at 10 uM incubated for 120 mins by radioligand binding assay relative to control
# Acetylcholine receptor subunit alpha (Homo sapiens), sequence (P02708 whole entry): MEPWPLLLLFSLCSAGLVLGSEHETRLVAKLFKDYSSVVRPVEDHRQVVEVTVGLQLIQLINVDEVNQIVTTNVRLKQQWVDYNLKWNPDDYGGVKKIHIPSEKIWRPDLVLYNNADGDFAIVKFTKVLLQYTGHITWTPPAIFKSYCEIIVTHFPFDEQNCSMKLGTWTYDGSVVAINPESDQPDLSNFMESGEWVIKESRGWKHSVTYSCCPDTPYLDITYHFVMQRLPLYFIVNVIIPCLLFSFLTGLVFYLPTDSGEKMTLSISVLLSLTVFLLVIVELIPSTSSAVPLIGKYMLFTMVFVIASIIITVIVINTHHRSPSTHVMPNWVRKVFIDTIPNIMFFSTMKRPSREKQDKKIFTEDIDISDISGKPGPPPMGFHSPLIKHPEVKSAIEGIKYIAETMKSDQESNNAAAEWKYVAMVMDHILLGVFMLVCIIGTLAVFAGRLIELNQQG
# [24] = biological target: Delta-type opioid receptor (Homo sapiens) (UniProt P41143); test: Displacement of [3H]DADLE from human recombinant Delta opioid receptor at 10 uM after 60 mins by scintillation counting analysis relative to control
# Mus musculus = species: Mus musculus; test: Displacement of [3H]-PDBu from mouse phorbol ester receptor at 10 uM incubated for 60 mins by scintillation counting analysis relative to control
# Cricetinae = test: Displacement of [3H]-Glyburide from hamster potassium channel at 10 uM incubated for 120 mins by scintillation counting analysis relative to control
# [25] = biological target: 5-hydroxytryptamine receptor 3A (Homo sapiens) (UniProt P46098); test: Displacement of [3H]BRL 43694 from human recombinant 5-HT3 receptor at 10 uM after 120 mins by scintillation counting analysis relative to control
# 5-hydroxytryptamine receptor 3A (Homo sapiens), sequence (P46098 whole entry): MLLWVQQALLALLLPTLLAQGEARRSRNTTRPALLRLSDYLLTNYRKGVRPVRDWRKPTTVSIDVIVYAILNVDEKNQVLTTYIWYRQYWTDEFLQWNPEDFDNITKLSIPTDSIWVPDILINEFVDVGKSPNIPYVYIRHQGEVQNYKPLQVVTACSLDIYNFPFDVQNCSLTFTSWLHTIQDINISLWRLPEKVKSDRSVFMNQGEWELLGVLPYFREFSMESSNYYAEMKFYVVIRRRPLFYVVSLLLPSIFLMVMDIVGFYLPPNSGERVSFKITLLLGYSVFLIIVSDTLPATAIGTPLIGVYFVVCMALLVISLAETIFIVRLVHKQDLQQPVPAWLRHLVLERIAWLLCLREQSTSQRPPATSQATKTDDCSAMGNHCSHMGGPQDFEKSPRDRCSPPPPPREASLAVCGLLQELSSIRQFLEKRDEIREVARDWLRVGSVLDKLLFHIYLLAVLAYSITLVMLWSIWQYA
# [26] = biological target: Sodium-dependent noradrenaline transporter (Homo sapiens) (UniProt P23975); test: Displacement of […] from recombinant human norepinephrine transporter at 10 uM after 120 mins by scintillation counting analysis relative to control
# Rattus norvegicus [27] = species: Rattus norvegicus; test: Displacement of [3H]-GABA in GABA transporter in rat brain membrane at 10 uM incubated for 30 mins by scintillation counting analysis elative to control; type: cell membranes
# [28] = Fraction unbound in rat plasma at 5 uM incubated for 4 hrs by equilibrium dialysis based LC-MS/MS analysis; type: ADME, cell-free
# [29] = Fraction unbound in mouse plasma at 5 uM incubated for 4 hrs by equilibrium dialysis based LC-MS/MS analysis; type: ADME, cell-free
smiles,measurement,setting,value
COc1cc(F)cc2c(N3CCN(c4ccccc4F)CC3)c(C#N)cnc12,inhibition,Rattus norvegicus [1]; tested as the 2H-labelled form,< 50%
same,EC50,[2],1400 nM
same,Activity,[3],98%
same,Activity,[3]; tested as the 2H-labelled form,98%
same,Activity,[4]; tested as the 2H-labelled form,62.8%
same,inhibition,[5]; tested as the 2H-labelled form,< 50%
same,inhibition,[6]; tested as the 2H-labelled form,< 50%
same,inhibition,[7]; tested as the 2H-labelled form,< 50%
same,inhibition,[8]; tested as the 2H-labelled form,< 50%
same,inhibition,[9]; tested as the 2H-labelled form,< 50%
same,inhibition,[10]; tested as the 2H-labelled form,< 50%
same,inhibition,[11]; tested as the 2H-labelled form,< 50%
same,inhibition,[12]; tested as the 2H-labelled form,< 50%
same,inhibition,[13]; tested as the 2H-labelled form,< 50%
same,inhibition,Rattus norvegicus [14]; tested as the 2H-labelled form,< 50%
same,inhibition,Rattus norvegicus [15]; tested as the 2H-labelled form,< 50%
same,inhibition,[16]; tested as the 2H-labelled form,< 50%
same,inhibition,[17]; tested as the 2H-labelled form,< 50%
same,inhibition,[18]; tested as the 2H-labelled form,< 50%
same,inhibition,[19]; tested as the 2H-labelled form,< 50%
same,inhibition,[20]; tested as the 2H-labelled form,< 50%
same,inhibition,[21]; tested as the 2H-labelled form,< 50%
same,inhibition,[22]; tested as the 2H-labelled form,< 50%
same,inhibition,[23]; tested as the 2H-labelled form,< 50%
same,inhibition,[24]; tested as the 2H-labelled form,< 50%
same,inhibition,Mus musculus; tested as the 2H-labelled form,< 50%
same,inhibition,Cricetinae; tested as the 2H-labelled form,< 50%
same,inhibition,[25]; tested as the 2H-labelled form,< 50%
same,inhibition,[26]; tested as the 2H-labelled form,< 50%
same,inhibition,Rattus norvegicus [27]; tested as the 2H-labelled form,< 50%
same,"fraction unbound at 4 h, 5 µM",[28],0.01
same,"fraction unbound at 4 h, 5 µM",[29],0.012
COc1cccc2c(N3CCN(c4ccccc4F)CC3)c(C#N)cnc12,inhibition,Rattus norvegicus [1],< 50%
same,EC50,[2],1100 nM
same,Activity,[3],85.1%
same,Activity,[3]; tested as the 2H-labelled form,73%
same,Activity,[4],51.3%
same,inhibition,[5],< 50%
same,inhibition,[6],< 50%
same,inhibition,[7],< 50%
same,inhibition,[8],< 50%
same,inhibition,[9],< 50%
same,inhibition,[10],< 50%
same,inhibition,[11],< 50%
same,inhibition,[12],< 50%
same,inhibition,[13],< 50%
same,inhibition,Rattus norvegicus [14],< 50%
same,inhibition,Rattus norvegicus [15],< 50%
same,inhibition,[16],< 50%
same,inhibition,[17],< 50%
same,inhibition,[18],< 50%
same,inhibition,[19],< 50%
same,inhibition,[20],< 50%
same,inhibition,[21],< 50%
same,inhibition,[22],< 50%
same,inhibition,[23],< 50%
same,inhibition,[24],< 50%
same,inhibition,Mus musculus,< 50%
same,inhibition,Cricetinae,< 50%
same,inhibition,[25],< 50%
same,inhibition,[26],< 50%
same,inhibition,Rattus norvegicus [27],< 50%
same,"fraction unbound at 4 h, 5 µM",[28],0.032
same,"fraction unbound at 4 h, 5 µM",[29],0.051
